Assay [1] concerns HCT116 colon cancer cells. Briefly: HCT116 cell viability and proliferation assay (MTS). Particulars: Homo sapiens, HCT-116, HCT116, 72 hours, read-out: Cell viability (MTS): HCT116 Gl50 Day 3. In kind it is cell-based. On the procedure:
HCT116 colon cancer cells were obtained from ATCC (American Type Culture Collection), and maintained in Mc Coy's 5A medium containing 10% FBS, 3 mM glutamine and 1% penicillin/streptomycin. Cells were incubated at 37° C. in a humidified atmosphere containing 5% CO2.
Cell viability was assayed using the MTS technique in 96-well culture plates (CellTiter 96® Aqueous Non-Radioactive Cell Proliferation Assay, Promega) according to the manufacturer's instructions. MTS (3-(4,5-dimethyl-thiazol-2-yl)-5-(3-carboxy-methoxyphenyl)-2-(4-sulfophenyl)-2H-tetra-zolium) is a MTT-derived tetrazolium that is reduced in metabolically active cells into a soluble, cell-permeant formazan. The amount of formazan, detected by its absorbance at 492 nm is proportional to the number of living, metabolically active cells.
10^3 HCT116 cells were seeded per well. 24 hours later, the medium was changed and the cells treated in triplicate with the concentrations of each compound from 100 μM to 50 nM. The compounds were diluted in 100% DMSO, whose final concentration on cells was kept at 0.5%.
Cells were incubated with the compounds for 72 hours, and their viability then assayed by the addition of MTS for 2 hours. Absorbance at 492 nm was measured directly from the 96-well culture plates. GI50 (Growth Inhibition 50) concentrations for each compound were calculated using a sigmoidal variable slope fit (Prism 4.0, Graphpad Softwares). Values represent mean of three independent experiments.

Assay [2] addresses T1, USP8 (Homo sapiens, UniProt P40818).
T1 construct: His tag (pFastBac-HT vector); made in house; host or cells: Sf9 or High Five insect cells, baculovirus
T1 sequence (P40818 1-1118): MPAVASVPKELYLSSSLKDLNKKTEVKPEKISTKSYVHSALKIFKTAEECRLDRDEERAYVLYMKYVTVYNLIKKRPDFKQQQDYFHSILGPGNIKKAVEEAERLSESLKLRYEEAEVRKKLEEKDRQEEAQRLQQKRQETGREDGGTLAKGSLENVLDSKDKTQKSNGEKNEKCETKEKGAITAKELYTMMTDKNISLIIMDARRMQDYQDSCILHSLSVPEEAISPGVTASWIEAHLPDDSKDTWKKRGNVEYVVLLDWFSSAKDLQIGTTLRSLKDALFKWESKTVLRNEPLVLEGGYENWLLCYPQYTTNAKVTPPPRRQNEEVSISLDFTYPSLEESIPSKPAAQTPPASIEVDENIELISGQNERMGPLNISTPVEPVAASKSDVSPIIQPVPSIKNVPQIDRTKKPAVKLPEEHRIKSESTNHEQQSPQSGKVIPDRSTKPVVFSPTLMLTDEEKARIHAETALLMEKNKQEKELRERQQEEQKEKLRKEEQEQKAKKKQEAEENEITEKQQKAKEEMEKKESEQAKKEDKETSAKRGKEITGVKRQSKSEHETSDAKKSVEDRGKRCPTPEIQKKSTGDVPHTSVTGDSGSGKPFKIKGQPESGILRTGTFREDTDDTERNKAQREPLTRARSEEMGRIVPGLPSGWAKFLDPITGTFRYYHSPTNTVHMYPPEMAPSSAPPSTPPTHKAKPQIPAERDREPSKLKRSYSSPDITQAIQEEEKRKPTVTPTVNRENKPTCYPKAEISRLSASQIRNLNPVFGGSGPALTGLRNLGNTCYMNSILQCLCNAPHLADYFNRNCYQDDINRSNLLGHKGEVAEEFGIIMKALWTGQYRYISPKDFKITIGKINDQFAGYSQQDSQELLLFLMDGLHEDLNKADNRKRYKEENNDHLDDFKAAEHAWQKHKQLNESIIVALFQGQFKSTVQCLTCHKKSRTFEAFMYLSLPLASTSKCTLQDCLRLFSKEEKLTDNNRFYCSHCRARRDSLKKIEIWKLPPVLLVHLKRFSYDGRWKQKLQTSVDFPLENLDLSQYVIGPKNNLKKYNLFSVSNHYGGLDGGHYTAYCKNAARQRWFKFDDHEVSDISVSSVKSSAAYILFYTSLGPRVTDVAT
The experiment in a line: USP8 activity assay (Ub-AMC). Conditions: 300 nM Ub-AMC, 1.36 nM enzyme. It is filed as biochemical. The source says:
The cDNA encoding USP8 was obtained by PCR amplification from placenta mRNA. USP8 cDNA was subcloned by PCR into a baculovirus expression vector (pFastBac-HT; Invitrogen). A cDNA encoding a mutated USP8 was generated by mutagenic PCR. The corresponding protein encodes a cysteine to alanine substitution at residue 786. The sequences were ascertained by sequencing of the entire open reading frame. Bacmids encoding USP8 were generated following DH10bac transposition. The corresponding bacmids were transfected into insect cells (Sf9). Viruses were recovered from culture supernatant and amplified twice. Insect cells (Sf9 or High Five; Invitrogen) were infected for 72 hours. Total cell lysates were harvested and lyzed in lysis buffer (Tris HCl 50 mM pH 7.6; 0.75% NP40; 500 mM NaCl; 10% glycerol; 1 mM DTT; 10 mM imidazole; Protease Inhibitor Cocktail; AEBSF 20 μg·ml^−1; Aprotinin 10 μg·ml^−1). Proteins were affinity purified on metal affinity resins (Talon Metal affinity resin; BD Biosciences). Bound materials were extensively washed in wash buffer (50 mM Sodium Phosphate pH 7.0; 300 mM NaCl; 10 mM imidazole; 0.5% Triton X-100; 10% glycerol) and eluted from the resin in 250 mM imidazole-containing wash buffer. Proteins were dialyzed in dialysis buffer (Tris HCl pH 7.6 20 mM; NaCl 200 mM; DTT 1 mM; EDTA 1 mM; 10% Glycerol). Proteins purifications were analyzed on 4-12% NuPAGE (Invitrogen).
USP8 was diluted in USP buffer (50 mM Tris HCl; 0.5 mM EDTA; 5 mM DTT; 0.01% Triton X-100; Bovine Serum Albumin 0.05 mg·ml^−1 pH 8.8). Compounds stocks (100 mM) were stored at −20° C. in DMSO. Compounds were tested at different concentrations: from […] to 91 nM.
Reactions were performed as duplicates in Black 384 well plates (small volume microplates; Greiner; 10 μl final reaction volume). The substrate concentration for USP8 was 300 nM Ub-AMC (Boston Biochem). The concentration of the enzyme (USP8) in specificity assays was 1.36 nM. The concentrations were determined in order to perform specificity assays under initial velocities at fixed substrate concentration. Compounds were pre-incubated with enzymes for 30 minutes at 25° C. Reactions were initiated by addition of substrate to the plates containing the enzymes (+/−compounds) diluted in assay buffer. Reactions were incubated for 60 minutes at 37° C. Reactions were stopped by adding acetic acid (100 mM final). Readings were performed on a Pherastar Fluorescent Reader (BMG). λ Emission 380 nm: λ Excitation=460 nm. Data (mean values+/−standard deviation) were analyzed as % of control (no compound) and plotted as percentage versus the Log of the compound concentration using GraphPad (Prism). Data were fitted to a sigmoidal model (variable slope).

With `CCCN(CCC)CCCNC(=O)c1ccc2c(Cl)c3c(nc2c1)CCCC3` [Example 6, 9-Chloro-5,6,7,8-tetrahydro-acridine-3-carboxylic acid (3-dipropylamino-propyl)-amide], the IC50 in assay [1] is 3.9 µM; in assay [2], more than 200 µM. For `CCCCN(CC)CCNC(=O)c1ccc2c(Cl)c3c(nc2c1)CCCC3` [Example 4, 9-Chloro-5,6,7,8-tetrahydro-acridine-3-carboxylic acid [2-(butyl-ethyl-amino)-ethyl]-amide] the same measures were 4 µM and more than 200 µM. As for `CN(CCCNC(=O)c1ccc2c(Cl)c3c(nc2c1)CCCC3)Cc1ccccc1` [Example 14, 9-Chloro-5,6,7,8-tetrahydro-acridine-3-carboxylic acid [3-(benzyl-methyl-amino)-propyl]-amide], the results for the IC50 in assay [1] and in assay [2] were 4.1 µM and more than 200 µM, respectively.

`CCN(CCCNC(=O)c1ccc2c(Cl)c3c(nc2c1)CCCC3)Cc1ccccc1` [Example 5, 9-Chloro-5,6,7,8-tetrahydro-acridine-3-carboxylic acid [3-(benzyl-ethyl-amino)-propyl]-amide]: the IC50 was 4 µM in assay [1] and more than 200 µM in assay [2]. Consider `O=C(NCCCN1CCCC1)c1ccc2c(Cl)c3c(nc2c1)CCCC3` [Example 8, 9-Chloro-5,6,7,8-tetrahydro-acridine-3-carboxylic acid (3-pyrrolidin-1-yl-propyl)-amide], for which the IC50 in assay [1] is 5.9 µM; in assay [2] it was more than 200 µM. With `CCCN1CCN(CCCNC(=O)c2ccc3c(Cl)c4c(nc3c2)CCCC4)CC1` [Example 13, 9-Chloro-5,6,7,8-tetrahydro-acridine-3-carboxylic acid [3-(4-propyl-piperazin-1-yl)-propyl]-amide], the results for the IC50 in assay [1] and in assay [2] were 5.9 µM and more than 200 µM, respectively.

For `Cc1cccc(CN2CCC(CNC(=O)c3ccc4c(Cl)c5c(nc4c3)CCCC5)CC2)c1` [Example 1, 9-Chloro-5,6,7,8-tetrahydro-acridine-3-carboxylic acid [1-(3-methyl-benzyl)-piperidin-4-ylmethyl]-amide], the IC50 in assay [1] was 2 µM; in assay [2], more than 200 µM. For `CCN(CC)CCCNC(=O)c1ccc2c(Cl)c3c(nc2c1)CCCC3` [Example 10, 9-Chloro-5,6,7,8-tetrahydro-acridine-3-carboxylic acid (3-diethylamino-propyl)-amide], the IC50 in assay [1] was 5 µM; in assay [2], more than 200 µM. Consider `O=C(c1ccc2c(Cl)c3c(nc2c1)CCCC3)N1CCC(N2CCCCC2)CC1` [Example 16, [1,4′]Bipiperidinyl-1′-yl-(9-chloro-5,6,7,8-tetrahydro-acridin-3-yl)-methanone], for which the IC50 in assay [1] was 13.5 µM; in assay [2] it was more than 200 µM.

`CCN(CC)CCNC(=O)c1ccc2c(Cl)c3c(nc2c1)CCCC3` [Example 7, 9-Chloro-5,6,7,8-tetrahydro-acridine-3-carboxylic acid (2-diethylamino-ethyl)-amide]: the IC50 was 4.3 µM in assay [1] and more than 200 µM in assay [2]. On to `CC1CCCC(C)N1CCCNC(=O)c1ccc2c(Cl)c3c(nc2c1)CCCC3` (stereo not shown) [Example 9, 9-Chloro-5,6,7,8-tetrahydro-acridine-3-carboxylic acid [3-(2,6-dimethyl-piperidin-1-yl)-propyl]-amide], for which the IC50 in assay [1] is 3.6 µM; in assay [2], more than 200 µM. Consider `CCCN(CCC)CCNC(=O)c1ccc2c(Cl)c3c(nc2c1)CCCC3` [Example 3, 9-Chloro-5,6,7,8-tetrahydro-acridine-3-carboxylic acid (2-dipropylamino-ethyl)-amide], for which the results for the IC50 in assay [1] and in assay [2] were 3.5 µM and more than 200 µM, respectively. For `CN(C)CCNC(=O)c1ccc2c(Cl)c3c(nc2c1)CCCC3` [Example 11, 9-Chloro-5,6,7,8-tetrahydro-acridine-3-carboxylic acid (2-dimethylamino-ethyl)-amide] the same measures were 7.8 µM and more than 200 µM. The like results for `O=C(c1ccc2c(Cl)c3c(nc2c1)CCCC3)N1CCCCCC1` [Example 12, Azepan-1-yl-(9-chloro-5,6,7,8-tetrahydro-acridin-3-yl)-methanone] were, in that order, 20 µM and more than 200 µM. For the compound `CCN1CCCC1CNC(=O)c1ccc2c(Cl)c3c(nc2c1)CCCC3` (stereo not shown) [Example 2, 9-Chloro-5,6,7,8-tetrahydro-acridine-3-carboxylic acid (1-ethyl-pyrrolidin-2-ylmethyl)-amide], the IC50 in assay [1] came out at 5 µM. Consider `CN1CCN(CCCNC(=O)c2ccc3c(Cl)c4c(nc3c2)CCCC4)CC1` [Example 15, 9-Chloro-5,6,7,8-tetrahydro-acridine-3-carboxylic acid [3-(4-methyl-piperazin-1-yl)-propyl]-amide], for which the IC50 in assay [1] is 7.4 µM; in assay [2], more than 200 µM.
